Series [1] concerns human embryonic lung (HEL) fibroblasts.
The test system is the same in series [2]. In words: Minimum cytotoxic concentration, HEL cell morphology.
The test system of series [3] is thymidine kinase-deficient (TK−) HSV-1 KOS strain. The format is cell-based, herpes simplex virus type 1. The settings on record: HEL cell cultures.
A further series deals with TK- VZV (07-1). The format is cell-based, varicella-zoster virus.
Series [4] deals with HIV-1. In words: HIV-1 inhibition in MT-4 cell cultures. To be noted: HIV-1, MT-4 cells. It counts as cell-based, human immunodeficiency virus type 1.
For series [5], the system named is HIV-1. In words: HIV-1 inhibition in human tonsillar tissues ex vivo. It counts as cell-based, human immunodeficiency virus type 1. To be noted: HIV-1 X4LAI.04, 12 days culture.

Molecules are shown by their SMILES. Read-outs that look alike come from different tables or passages of the source. Where only a bound is given, the exact number is not on record here.

As to `Nc1nc(O)c2ncn(COC(CO)CO)c2n1` [Compound 1, ganciclovir, reference compound], the “Cytotoxicity MCC” value in series [1] is recorded as over 100 µM.

For `Nc1nc2c(ncn2CCC(CO)CO)c(=O)[nH]1` [Compound 2, penciclovir, reference compound], in series [1], the “Cytotoxicity MCC” value is listed as over 100 µM. With `CC(C)(NP(=O)(OCC(CO)OCn1cnc2c(=O)[nH]c(N)nc21)Oc1ccccc1)C(=O)OCc1ccccc1` (centres unmarked) [Compound 20], the results for the “Cytotoxicity MCC” value in series [2] (Table 3 (HSV assays)) and in series [2] (Table 4 (HCMV/VZV assays)) were over 100 µM and over 50 µM, respectively. Moreover, the “fold difference in EC50 values between HSV-1 TK+ and TK− strains” value in series [3] is recorded as under 2.5 fold. Besides, the “fold more active than ACV against VZV TK− 07-1 strain” value in the series on TK- VZV (07-1) is recorded as at least 20 fold. Regarding `C[C@H](NP(=O)(OCC(CO)OCn1cnc2c(=O)[nH]c(N)nc21)Oc1ccccc1)C(=O)OCc1ccccc1` (some centres unmarked) [Compound 27], the “Cytotoxicity MCC” value in series [2] (Table 3 (HSV assays)) and in series [2] (Table 4 (HCMV/VZV assays)) was over 100 µM each time. Also, the “fold more active than ACV against VZV TK− 07-1 strain” value in the series on TK- VZV (07-1) is at least 20 fold.

Regarding `C[C@H](NP(=O)(OCC(CO)CCn1cnc2c(=O)[nH]c(N)nc21)Oc1ccccc1)C(=O)OCc1ccccc1` (some centres unmarked) [Compound 42], the “selectivity index (ratio IC50/EC50)” value with HIV-1 [4] is reported as over 15. Besides, the “Cytotoxicity MCC” value is given as over 100 µM in series [2] (Table 3 (HSV assays)) and over 50 µM in series [2] (Table 4 (HCMV/VZV assays)). As for `C[C@H](NP(=O)(OCC(COP(=O)(N[C@@H](C)C(=O)OCc1ccccc1)Oc1ccccc1)SCn1cnc2c(=O)[nH]c(N)nc21)Oc1ccccc1)C(=O)OCc1ccccc1` (some centres unmarked) [Compound 55], the “Anti-HIV Activity EC50” value in the series with HIV-1 [5] is listed as “did not inhibit HIV”. Regarding `C[C@H](NP(=O)(OCC(CCn1cnc2c(Cl)nc(N)nc21)COP(=O)(N[C@@H](C)C(=O)OCc1ccccc1)Oc1ccccc1)Oc1ccccc1)C(=O)OCc1ccccc1` (some centres unmarked) [Compound 59], in the series on HIV-1 [4], the “fold loss in antiviral activity versus mono-ProTide 60” value is 7 fold. Consider `COc1nc(N)nc2c1ncn2CCC(CO)COP(=O)(N[C@@H](C)C(=O)OCc1ccccc1)Oc1ccccc1` (some centres unmarked) [Compound 66], for which the “selectivity index (ratio IC50/EC50)” value in the series on HIV-1 [4] stood at 21. Further, the “Antiviral Activity EC50 HSV-1 TK (KOS)” value in series [3] (TK-deficient, ACV-resistant strain) is recorded as “retention of some activity”. On to `CCOC(=O)[C@H](C)NP1(=O)OCC(OCn2cnc3c(=O)[nH]c(N)nc32)CO1` (some centres unmarked) [Compound 74], for which the “selectivity index (ratio IC50/EC50)” value with HIV-1 [4] was over 7.

For the origin of these results see article PMC5731253 (Journal of medicinal chemistry, 2017).
